Publication doi:10.1101/2025.05.30.657074, “A covalent recognition strategy enables conspecific mate identification” (bioRxiv, 2025)
pEC50: −log10 of the molar value.

Columns and labels:
[1] = biological target: BmOR1/Orco (Bombyx mori, UniProt Q5WA61); assay: GCaMP6 calcium flux assay, wild-type BmOR1/Orco; type: cell-based
Excerpt: (§1) The first insect pheromone system characterized at the molecular level is that of Bombyx mori, a moth long known to navigate towards its mate guided solely by pheromone cues with impressive navigation accuracy. Two PR/Orco complexes, BmOR1/BmOrco and BmOR3/BmOrco, have been linked to the behavioral responses to pheromones in B. mori (Figure 1A). The conspecific pheromone, bombykol, is detected through BmOR1/Orco and leads to sexual attraction. The heterospecific pheromone, bombykal, is sensed through BmOR3/Orco, and leads to suppression of mating behavior. We first characterized the extent to which both PR/Orco complexes are selective towards their cognate ligands. We used a previously established calcium flux functional assay where we co-transfected HEK293 cells with either BmOR1 or BmOR3, along with the coreceptor, BmOrco (here on referred to as Orco), and the fluorescent calcium reporter, GCaMP6 (Figure 1C). In this assay, ligand-activation of the heteromeric ion channel complexes by addition of either bombykol or bombykal leads to calcium influx, read out as GCaMP6 fluorescence changes that can be monitored in real-time and dose-dependent manner using a fluorescence plate reader. […] But we also found both PR/Orco complexes to be somewhat promiscuous: both complexes are activated by their non-cognate pheromones (bombykal for BmOR1/Orco and bombykol for BmOR3/Orco) with a response that is ~10 fold smaller than their cognate pheromones. […] Instead, two complexes with reciprocal specificities enable an unequivocal response to bombykal and bombykol across all concentrations, ensuring the behavioral accuracy needed for mate selection.
(§2) The assay was performed similarly to method descriptions in previous studies.
(§3) All DNA constructs used in this assay were cloned into a modified pME18 vector that contains a SV40 promotor.
(§4) Each transfection condition (per well) contained a total of 300 ng of plasmids in 1:1:1 ratio of the GCaMP6, Orco, and the corresponding OR plasmid that was diluted in 4.8 uL of OptiMEM (Gibco) along with 0.1 uL of P3000. The mixture was incubated for 5 minutes and then further incubated for 20 minutes after being mixed with Lipofectamine 3000 (Invitrogen) diluted in OptiMEM. This mixture was scaled accordingly to batch transfect 50-100 wells per construct per plate.
(§5) HEK293T cells were maintained at 37°C with 5% carbon dioxide and grown in high glucose DMEM enhanced with 10% FBS and 1% GlutaMAX (Gibco). Cells were detached with TrypLE Express Enzyme and resuspended in FluoroBrite DMEM (Gibco) with 10% FBS and 1% GlutaMAX (Gibco) to a concentration of 5 × 10^5 cells/ml. Cells were combined with each transfection condition and added to 2x16 wells of a 384-well plate (Grenier CELLSTAR). Cells were kept at 37°C for 18-20 hours before being used for fluorescence plate reading.
(§6) Odorant plates were prepared using D300e (Hewlett Packard), a digital, non-contact dispenser. Briefly, stock solutions of bombykol and bombykal were prepared in DMSO and plated onto 384-plates (Greiner, Catalog #784201) in a titrating volume to obtain a concentration series ranging between 316 nM and 100 mM with a final volume of 0.2 µL.
(§7) The odorant plates were kept at −20 °C until usage.
(§8) On the day of the GCaMP6 assay, Bravo (Agilent), a versatile liquid handler was used to prepare both the odorant plate and the assay plate (transfected cell plate) prior to the fluorescence readout using the FDSS/µcell kinetic plate Imager (Hamamatsu, C13299).
(§9) For the odorant plate, the DMSO dissolved stock solutions were diluted in 19.8 µL of Reading buffer (20 mM HEPES/NaOH (pH 7.4), 1× HBSS (Gibco), 3 mM Na2CO3, 1 mM MgSO4, and 5 mM CaCl2) to give a final concentration ranging from 3.16 nM to 1 mM with 1% DMSO. For the cell plate, the FluoroBrite DMEM (Gibco) was exchanged out with the […]
(§10) The kinetics of the fluorescence change upon odorant addition were measured using the FDSS/µcell kinetic plate Imager (Hamamatsu, C13299). […]

[2] = biological target: BmOR3/Orco (Bombyx mori, UniProt Q5FBE0); assay: GCaMP6 calcium flux assay, wild-type BmOR3/Orco; type: cell-based
Excerpt: as §1, §2, §3, §4, §5, §6, §7, §8, §9, §10

[3] = biological target: OR3_K58A (Bombyx mori, UniProt Q5FBE0, K58A); assay: GCaMP6 calcium flux assay, BmOR3/Orco mutant K58A; type: cell-based
Excerpt: as §1, §2, §3, §4, §5, §6, §7, §8, §9, §10

[4] = biological target: OR3_K58S (Bombyx mori, UniProt Q5FBE0, K58S); assay: GCaMP6 calcium flux assay, BmOR3/Orco mutant K58S; type: cell-based
Excerpt: as §1, §2, §3, §4, §5, §6, §7, §8, §9, §10

[5] = biological target: OR3_K58Q (Bombyx mori, UniProt Q5FBE0, K58Q); assay: GCaMP6 calcium flux assay, BmOR3/Orco mutant K58Q; type: cell-based
Excerpt: as §1, §2, §3, §4, §5, §6, §7, §8, §9, §10

[6] = biological target: OR3_C215A (Bombyx mori, UniProt Q5FBE0, C215A); assay: GCaMP6 calcium flux assay, BmOR3/Orco mutant C215A; type: cell-based
Excerpt: (§11) The first insect pheromone system characterized at the molecular level is that of Bombyx mori, a moth long known to navigate towards its mate guided solely by pheromone cues with impressive navigation accuracy. Two PR/Orco complexes, BmOR1/BmOrco and BmOR3/BmOrco, have been linked to the behavioral responses to pheromones in B. mori (Figure 1A). The conspecific pheromone, bombykol, is detected through BmOR1/Orco and leads to sexual attraction. The heterospecific pheromone, bombykal, is sensed through BmOR3/Orco, and leads to suppression of mating behavior. We first characterized the extent to which both PR/Orco complexes are selective towards their cognate ligands. We used a previously established calcium flux functional assay where we co-transfected HEK293 cells with either BmOR1 or BmOR3, along with the coreceptor, BmOrco (here on referred to as Orco), and the fluorescent calcium reporter, GCaMP6 (Figure 1C). In this assay, ligand-activation of the heteromeric ion channel complexes by addition of either bombykol or bombykal leads to calcium influx, read out as GCaMP6 fluorescence changes that can be monitored in real-time and dose-dependent manner using a fluorescence plate reader. […]
(§12) HEK293T cells were maintained at 37°C with 5% carbon dioxide and grown in high glucose DMEM enhanced with 10% FBS and 1% GlutaMAX (Gibco). […] Cells were kept at 37°C for 18-20 hours before being used for fluorescence plate reading. […]
as §8
(§13) For the odorant plate, the DMSO dissolved stock solutions were diluted in 19.8 µL of Reading buffer (20 mM HEPES/NaOH (pH 7.4), 1× HBSS (Gibco), 3 mM Na2CO3, 1 mM MgSO4, and 5 mM CaCl2) to give a final concentration ranging from 3.16 nM to 1 mM with 1% DMSO. […]
as §10

[7] = biological target: OR3_C215S (Bombyx mori, UniProt Q5FBE0, C215S); assay: GCaMP6 calcium flux assay, BmOR3/Orco mutant C215S; type: cell-based
Excerpt: as §11, §12, §8, §13, §10

[8] = biological target: OR3_F159A (Bombyx mori, UniProt Q5FBE0, F159A); assay: GCaMP6 calcium flux assay, BmOR3/Orco mutant F159A; type: cell-based
Excerpt: as §11, §12, §8, §13, §10

[9] = biological target: OR3_L349A (Bombyx mori, UniProt Q5FBE0, L349A); assay: GCaMP6 calcium flux assay, BmOR3/Orco mutant L349A; type: cell-based
Excerpt: as §11, §12, §8, §13, §10

[10] = biological target: OR3_L353A (Bombyx mori, UniProt Q5FBE0, L353A); assay: GCaMP6 calcium flux assay, BmOR3/Orco mutant L353A; type: cell-based
Excerpt: as §11, §12, §8, §13, §10

[11] = biological target: OR3_V348A (Bombyx mori, UniProt Q5FBE0, V348A); assay: GCaMP6 calcium flux assay, BmOR3/Orco mutant V348A; type: cell-based
Excerpt: as §11, §12, §8, §13, §10

[12] = biological target: OR3_V352A (Bombyx mori, UniProt Q5FBE0, V352A); assay: GCaMP6 calcium flux assay, BmOR3/Orco mutant V352A; type: cell-based
Excerpt: as §11, §12, §8, §13, §10

[13] = test system: B. mori male moths; design: method as in PMID 24744736, PMID 22836825; settings: conspecific male moths; cited from earlier work

Chain of OR3_L353A (Q5FBE0 entry or part of it L353A): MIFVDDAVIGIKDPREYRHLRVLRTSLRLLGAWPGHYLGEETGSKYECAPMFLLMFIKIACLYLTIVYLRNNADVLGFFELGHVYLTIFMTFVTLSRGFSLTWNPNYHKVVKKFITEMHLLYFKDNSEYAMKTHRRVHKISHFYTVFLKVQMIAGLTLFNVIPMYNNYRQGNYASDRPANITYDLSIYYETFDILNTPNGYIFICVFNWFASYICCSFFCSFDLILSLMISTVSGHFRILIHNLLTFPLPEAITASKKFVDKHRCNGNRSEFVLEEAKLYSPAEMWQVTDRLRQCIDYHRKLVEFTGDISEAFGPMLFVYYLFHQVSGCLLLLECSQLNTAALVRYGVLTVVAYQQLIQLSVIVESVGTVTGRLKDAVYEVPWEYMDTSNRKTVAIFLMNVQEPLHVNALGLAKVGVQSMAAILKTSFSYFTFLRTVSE
Chain of OR3_L353A (Q7YT34 entry or part of it, stated change not applied, further chain): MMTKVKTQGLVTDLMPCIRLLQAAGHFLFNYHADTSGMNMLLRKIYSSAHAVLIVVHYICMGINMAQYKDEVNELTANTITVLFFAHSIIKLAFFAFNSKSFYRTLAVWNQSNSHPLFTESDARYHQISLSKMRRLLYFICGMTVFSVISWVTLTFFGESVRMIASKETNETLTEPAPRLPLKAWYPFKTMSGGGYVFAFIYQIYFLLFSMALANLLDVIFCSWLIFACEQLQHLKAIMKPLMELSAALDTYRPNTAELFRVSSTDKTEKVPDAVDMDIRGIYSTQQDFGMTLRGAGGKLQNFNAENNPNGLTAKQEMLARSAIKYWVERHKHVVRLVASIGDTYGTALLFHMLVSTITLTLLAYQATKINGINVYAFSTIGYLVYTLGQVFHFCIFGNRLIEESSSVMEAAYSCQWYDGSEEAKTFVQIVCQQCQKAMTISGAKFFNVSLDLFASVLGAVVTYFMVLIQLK
Chain of OR3_K58S (Q5FBE0 entry or part of it K58S): as the sequence (Q5FBE0 entry or part of it L353A) above, with K58S, A353L counted along it
Chain of OR3_K58S (Q7YT34 entry or part of it, stated change not applied, further chain): as the sequence (Q7YT34 entry or part of it, stated change not applied, further chain) above
Chain of OR3_L349A (Q7YT34 entry or part of it, stated change not applied): as the sequence (Q7YT34 entry or part of it, stated change not applied, further chain) above
Chain of OR3_L349A (Q5FBE0 entry or part of it L349A): as the sequence (Q5FBE0 entry or part of it L353A) above, with L349A, A353L counted along it
Chain of OR3_C215S (Q7YT34 entry or part of it, stated change not applied): as the sequence (Q7YT34 entry or part of it, stated change not applied, further chain) above
Chain of OR3_C215S (Q5FBE0 entry or part of it C215S): as the sequence (Q5FBE0 entry or part of it L353A) above, with C215S, A353L counted along it
Chain of OR3_V348A (Q7YT34 entry or part of it, stated change not applied): as the sequence (Q7YT34 entry or part of it, stated change not applied, further chain) above
Chain of OR3_V348A (Q5FBE0 entry or part of it V348A): as the sequence (Q5FBE0 entry or part of it L353A) above, with V348A, A353L counted along it
Chain of BmOR1/Orco (Q7YT34 entry or part of it): as the sequence (Q7YT34 entry or part of it, stated change not applied, further chain) above
Chain of BmOR1/Orco (Q5WA61 entry or part of it): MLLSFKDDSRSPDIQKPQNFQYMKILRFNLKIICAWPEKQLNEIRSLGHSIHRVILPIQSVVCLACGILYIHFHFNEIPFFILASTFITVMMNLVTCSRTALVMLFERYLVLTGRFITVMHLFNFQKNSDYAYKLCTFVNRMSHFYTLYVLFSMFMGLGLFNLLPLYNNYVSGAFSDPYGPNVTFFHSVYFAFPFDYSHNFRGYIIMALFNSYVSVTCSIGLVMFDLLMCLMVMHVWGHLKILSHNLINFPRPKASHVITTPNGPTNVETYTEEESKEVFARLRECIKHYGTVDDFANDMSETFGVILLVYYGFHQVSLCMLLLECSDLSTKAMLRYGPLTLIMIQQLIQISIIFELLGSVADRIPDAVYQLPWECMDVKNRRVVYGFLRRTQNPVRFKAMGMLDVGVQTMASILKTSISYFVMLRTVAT
Chain of OR3_K58A (Q5FBE0 entry or part of it K58A): as the sequence (Q5FBE0 entry or part of it L353A) above, with K58A, A353L counted along it
Chain of OR3_K58A (Q7YT34 entry or part of it, stated change not applied, further chain): as the sequence (Q7YT34 entry or part of it, stated change not applied, further chain) above
Chain of OR3_K58Q (Q5FBE0 entry or part of it K58Q): as the sequence (Q5FBE0 entry or part of it L353A) above, with K58Q, A353L counted along it
Chain of OR3_K58Q (Q7YT34 entry or part of it, stated change not applied, further chain): as the sequence (Q7YT34 entry or part of it, stated change not applied, further chain) above
Chain of OR3_F159A (Q5FBE0 entry or part of it F159A): as the sequence (Q5FBE0 entry or part of it L353A) above, with F159A, A353L counted along it
Chain of OR3_F159A (Q7YT34 entry or part of it, stated change not applied, further chain): as the sequence (Q7YT34 entry or part of it, stated change not applied, further chain) above
Chain of OR3_C215A (Q5FBE0 entry or part of it C215A): as the sequence (Q5FBE0 entry or part of it L353A) above, with C215A, A353L counted along it
Chain of OR3_C215A (Q7YT34 entry or part of it, stated change not applied, further chain): as the sequence (Q7YT34 entry or part of it, stated change not applied, further chain) above
Chain of BmOR3/Orco (Q5FBE0 entry or part of it): as the sequence (Q5FBE0 entry or part of it L353A) above, with A353L counted along it
Chain of BmOR3/Orco (Q7YT34 entry or part of it, further chain): as the sequence (Q7YT34 entry or part of it, stated change not applied, further chain) above
Chain of OR3_V352A (Q5FBE0 entry or part of it V352A): as the sequence (Q5FBE0 entry or part of it L353A) above, with V352A, A353L counted along it
Chain of OR3_V352A (Q7YT34 entry or part of it, stated change not applied, further chain): as the sequence (Q7YT34 entry or part of it, stated change not applied, further chain) above

CCC/C=C\C=C\CCCCCCCCC=O [Bombykal, bombykal]
pEC50 ([1]; EC50, HEK293 cells co-transfected with BmOR1, BmOrco, GCaMP6): 5.52
pEC50 ([1]; Mean (-log EC50 ± SE), wild-type BmOR1/Orco): 5.52
response to non-cognate pheromone, fold smaller than cognate pheromone ([1]; bombykal vs cognate bombykol at BmOR1/Orco): ~ 10 fold
Hill Coefficient (n± SE) ([1]; wild-type BmOR1/Orco): 1.41 ± 0.09
Max (ΔF/F ± SE) ([1]; wild-type BmOR1/Orco, ΔF/F at highest ligand concentration): 1.02 ± 0.05 ΔF/F
pEC50 ([2]; EC50, HEK293 cells co-transfected with BmOR3, BmOrco, GCaMP6): 6.80
pEC50 ([2]; Mean (-log EC50 ± SE), wild-type BmOR3/Orco): 6.79
Hill Coefficient (n± SE) ([2]; wild-type BmOR3/Orco): 1.12 ± 0.08
Max (ΔF/F ± SE) ([2]; wild-type BmOR3/Orco, ΔF/F at highest ligand concentration): 0.98 ± 0.05 ΔF/F
pEC50 [3]: 4.80
Hill Coefficient (n± SE) ([3]; OR3_K58A): 0.8 ± 0.2
Max (ΔF/F ± SE) ([3]; OR3_K58A): 0.18± 0.03 ΔF/F
pEC50 [4]: 4.86
Hill Coefficient (n± SE) ([4]; OR3_K58S): 1.2 ± 0.2
Max (ΔF/F ± SE) ([4]; OR3_K58S): 0.36 ± 0.03 ΔF/F
pEC50 [5]: 4.99
Hill Coefficient (n± SE) ([5]; OR3_K58Q): 1.3 ± 0.1
Max (ΔF/F ± SE) ([5]; OR3_K58Q): 0.68 ± 0.02 ΔF/F
pEC50 [6]: 5.50
Hill Coefficient (n± SE) ([6]; OR3_C215A): 1.4 ± 0.3
Max (ΔF/F ± SE) ([6]; OR3_C215A): 0.82 ± 0.03 ΔF/F
pEC50 [7]: 5.90
Hill Coefficient (n± SE) ([7]; OR3_C215S): 1.09 ± 0.07
Max (ΔF/F ± SE) ([7]; OR3_C215S): 0.82 ± 0.05 ΔF/F
pEC50 [8]: 4.90
Hill Coefficient (n± SE) ([8]; OR3_F159A): 4 ± 2
Max (ΔF/F ± SE) ([8]; OR3_F159A): 0.16 ± 0.02 ΔF/F
pEC50 [9]: 5.47
Hill Coefficient (n± SE) ([9]; OR3_L349A): 5 ± 3
Max (ΔF/F ± SE) ([9]; OR3_L349A): 0.48 ± 0.04 ΔF/F
pEC50 [10]: 6.30
Hill Coefficient (n± SE) ([10]; OR3_L353A): 1.3 ± 0.2
Max (ΔF/F ± SE) ([10]; OR3_L353A): 0.91 ± 0.04 ΔF/F
pEC50 [11]: 6.32
Hill Coefficient (n± SE) ([11]; OR3_V348A): 1.25 ± 0.08
Max (ΔF/F ± SE) ([11]; OR3_V348A): 1.13 ± 0.04 ΔF/F
pEC50 [12]: 6.27
Hill Coefficient (n± SE) ([12]; OR3_V352A): 1.9 ± 0.2
Max (ΔF/F ± SE) ([12]; OR3_V352A): 0.63 ± 0.03 ΔF/F
behavioral response [13]: suppresses mating behavior
